Data set [1] has as its target T1, Muscarinic acetylcholine receptor M5 (Homo sapiens, UniProt P08912).
T1 sequence (P08912 whole entry): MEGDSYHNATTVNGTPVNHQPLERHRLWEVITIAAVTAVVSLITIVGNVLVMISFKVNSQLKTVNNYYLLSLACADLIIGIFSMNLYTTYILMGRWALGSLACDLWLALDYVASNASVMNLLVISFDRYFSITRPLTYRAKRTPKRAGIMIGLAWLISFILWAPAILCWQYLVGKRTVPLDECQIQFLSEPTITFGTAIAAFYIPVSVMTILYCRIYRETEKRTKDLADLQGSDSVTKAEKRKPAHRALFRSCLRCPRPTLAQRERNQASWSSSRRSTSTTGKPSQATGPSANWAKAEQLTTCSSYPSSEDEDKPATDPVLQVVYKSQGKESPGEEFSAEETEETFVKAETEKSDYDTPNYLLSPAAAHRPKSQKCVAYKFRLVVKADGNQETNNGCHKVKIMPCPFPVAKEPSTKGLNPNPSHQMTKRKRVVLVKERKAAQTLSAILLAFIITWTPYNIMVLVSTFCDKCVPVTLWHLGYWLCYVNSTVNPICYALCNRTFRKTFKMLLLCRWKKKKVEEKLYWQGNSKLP
The data set can be described thus: Agonist activity at human muscarinic M5 expressed in CHO cells assessed as stimulation of calcium mobilization. The class given is functional, cell-based. For orientation: Calcium assays in cells follow changes in intracellular calcium, usually with a dye or a luminescent sensor.

For data set [2], the target named is T2, Muscarinic acetylcholine receptor M5 (Homo sapiens) (UniProt P08912).
T2 sequence (whole entry): T1 sequence (P08912 whole entry)
Briefly: Agonist activity at human muscarinic M5 expressed in CHO cells assessed as stimulation of calcium mobilization relative to acetyle choline. The format is functional, cell-based. On the set-up: concentration or dose not given beside the values.

Data set [3] can be described thus: Ratio of AUC in rat brain to AUC in rat plasma. The format is ADME, tissue-based. To be noted: read-out: Ratio AUC.
The target of data set [4] is T3, Muscarinic acetylcholine receptor M1 (Rattus norvegicus, UniProt P08482).
T3 sequence (P08482 whole entry): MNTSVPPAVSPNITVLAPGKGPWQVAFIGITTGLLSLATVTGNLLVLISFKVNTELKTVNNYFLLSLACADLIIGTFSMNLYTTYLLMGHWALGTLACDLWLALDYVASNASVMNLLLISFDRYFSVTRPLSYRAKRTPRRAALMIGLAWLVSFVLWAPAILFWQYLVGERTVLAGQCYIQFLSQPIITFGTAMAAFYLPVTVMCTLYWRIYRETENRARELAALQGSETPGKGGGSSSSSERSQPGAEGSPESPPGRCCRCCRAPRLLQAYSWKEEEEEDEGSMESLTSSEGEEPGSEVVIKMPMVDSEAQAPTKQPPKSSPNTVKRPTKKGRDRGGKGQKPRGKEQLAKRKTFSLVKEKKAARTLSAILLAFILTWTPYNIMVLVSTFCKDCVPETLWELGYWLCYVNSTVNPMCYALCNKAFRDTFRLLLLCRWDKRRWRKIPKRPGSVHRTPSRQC
Briefly: Agonist activity at rat muscarinic M1 expressed in CHO cells assessed as stimulation of calcium mobilization. The format is functional, cell-based.

The target in data set [5] is T4, Muscarinic acetylcholine receptor M2 (Rattus norvegicus, UniProt P10980).
T4 sequence (P10980 whole entry): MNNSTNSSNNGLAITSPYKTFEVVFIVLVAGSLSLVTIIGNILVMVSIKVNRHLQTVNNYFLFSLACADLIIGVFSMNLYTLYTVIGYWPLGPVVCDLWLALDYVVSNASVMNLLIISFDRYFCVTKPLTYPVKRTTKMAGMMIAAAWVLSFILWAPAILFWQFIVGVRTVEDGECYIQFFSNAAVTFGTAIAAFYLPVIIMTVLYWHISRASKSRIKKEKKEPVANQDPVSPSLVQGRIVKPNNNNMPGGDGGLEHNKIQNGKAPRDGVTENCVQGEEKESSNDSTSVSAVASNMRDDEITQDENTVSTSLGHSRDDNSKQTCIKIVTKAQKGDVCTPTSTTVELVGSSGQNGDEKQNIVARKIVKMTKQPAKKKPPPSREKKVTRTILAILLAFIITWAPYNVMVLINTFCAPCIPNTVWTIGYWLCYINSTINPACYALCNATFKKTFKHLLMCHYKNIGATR
The data set can be described thus: Agonist activity at rat muscarinic M2 expressed in CHO cells assessed as stimulation of calcium mobilization. The format is functional, cell-based.

Data set [6] addresses T5, Muscarinic acetylcholine receptor M4 (Rattus norvegicus, UniProt P08485).
T5 sequence (P08485 whole entry): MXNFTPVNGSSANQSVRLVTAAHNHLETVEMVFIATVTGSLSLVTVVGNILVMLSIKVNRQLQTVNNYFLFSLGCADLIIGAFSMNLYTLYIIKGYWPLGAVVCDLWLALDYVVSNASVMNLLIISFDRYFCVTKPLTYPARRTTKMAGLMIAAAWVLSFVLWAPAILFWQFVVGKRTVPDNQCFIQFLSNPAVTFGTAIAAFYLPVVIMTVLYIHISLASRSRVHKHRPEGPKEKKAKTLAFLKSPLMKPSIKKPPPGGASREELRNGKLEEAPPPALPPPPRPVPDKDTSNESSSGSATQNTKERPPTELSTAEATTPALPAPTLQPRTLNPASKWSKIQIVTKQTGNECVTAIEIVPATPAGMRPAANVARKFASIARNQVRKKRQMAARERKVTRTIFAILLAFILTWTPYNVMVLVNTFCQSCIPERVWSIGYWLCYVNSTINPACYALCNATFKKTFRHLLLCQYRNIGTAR
The data set can be described thus: Agonist activity at rat muscarinic M4 expressed in CHO cells assessed as stimulation of calcium mobilization. The class given is functional, cell-based.

Data set [7] concerns the target Muscarinic acetylcholine receptor M3 (Homo sapiens) (UniProt P20309). The data set can be described thus: Agonist activity at human muscarinic M3 expressed in CHO cells assessed as stimulation of calcium mobilization at 30 uM. The format is functional, cell-based.
For data set [8], the target named is T6, Muscarinic acetylcholine receptor M1 (Rattus norvegicus) (UniProt P08482).
T6 sequence (whole entry): T3 sequence (P08482 whole entry)
The data set can be described thus: Agonist activity at rat muscarinic M1 expressed in CHO cells assessed as stimulation of calcium mobilization at 30 uM. The format is functional, cell-based.

Chain of Muscarinic acetylcholine receptor M3 (Homo sapiens) (P20309 whole entry, looked up): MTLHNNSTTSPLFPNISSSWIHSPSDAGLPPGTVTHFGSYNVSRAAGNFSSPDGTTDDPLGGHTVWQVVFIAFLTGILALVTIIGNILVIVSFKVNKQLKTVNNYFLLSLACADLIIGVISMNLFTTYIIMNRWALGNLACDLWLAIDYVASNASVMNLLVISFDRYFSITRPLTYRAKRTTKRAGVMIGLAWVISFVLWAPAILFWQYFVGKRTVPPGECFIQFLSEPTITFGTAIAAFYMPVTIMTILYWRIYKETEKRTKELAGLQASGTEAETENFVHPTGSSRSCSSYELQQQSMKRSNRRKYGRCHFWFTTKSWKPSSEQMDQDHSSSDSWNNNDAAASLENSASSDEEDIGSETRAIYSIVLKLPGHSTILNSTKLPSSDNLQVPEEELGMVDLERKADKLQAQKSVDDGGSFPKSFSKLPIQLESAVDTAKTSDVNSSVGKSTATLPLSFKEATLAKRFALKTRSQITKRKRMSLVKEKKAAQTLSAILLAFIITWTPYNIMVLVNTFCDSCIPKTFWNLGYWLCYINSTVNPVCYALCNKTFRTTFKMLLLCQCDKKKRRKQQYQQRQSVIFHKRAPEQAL

On to `Cn1cc(-c2ccc(CN3C(=O)C(=O)c4cc(OC(F)(F)F)ccc43)cc2)cn1`, for which the EC50 – broadly, the concentration that produces a half-maximal response – was 3.3 µM in data set [1] and > 30 µM in data set [4]. Also, the Activity in data set [2] was found to be 85%. The Kp in data set [3] was 0.25.
Turning to `O=C1C(=O)N(Cc2ccc(-c3ccccc3)cc2)c2ccc(OC(F)(F)F)cc21`, the EC50 in data set [1] was 2.7 µM; in data set [4], > 30 µM. Also, the Activity in data set [2] came to 85%. For the same compound, the Kp in data set [3] turned out to be 0.25.
In the same order, the values of `O=C1C(=O)N(Cc2ccc(-c3ccsc3)cc2)c2ccc(OC(F)(F)F)cc21` are 2.8 µM, > 30 µM, 85% and 0.25.
Take `O=C1C(=O)N(Cc2ccc(Br)cc2)c2ccccc21`: the EC50 in data set [5] and in data set [6] was > 30 µM throughout. Besides, in data set [3], the Kp was 0.25.
For the compound `O=C1C(=O)N(Cc2ccc(-c3ccc(F)nc3)cc2)c2ccc(OC(F)(F)F)cc21`, the EC50 in data set [1] is 3.6 µM; in data set [4], > 30 µM. For the same compound, in data set [2], the Activity amounted to 80%. Moreover, in data set [3], the Kp was found to be 0.25.
As for `COc1ccccc1-c1ccc(CN2C(=O)C(=O)c3cc(OC(F)(F)F)ccc32)cc1`, the EC50 was 3.9 µM in data set [1] and > 30 µM in data set [4]. Besides, the Activity in data set [2] came to 70%. Further, the Kp in data set [3] came to 0.25.
With `O=C1C(=O)N(Cc2ccc(-c3ccc(Cl)nc3)cc2)c2ccc(OC(F)(F)F)cc21`, the EC50 was 4.8 µM in data set [1] and > 30 µM in data set [4]. The Activity in data set [2] was 85%. The Kp in data set [3] amounted to 0.25.
Take `O=C1C(=O)N(Cc2ccc(-c3ccccc3)cc2)c2cc(OC(F)(F)F)ccc21`: the EC50 in data set [1] worked out at 2.7 µM.
On to `O=C1C(=O)N(Cc2ccc(Oc3ccccc3)cc2)c2ccc(OC(F)(F)F)cc21`, for which the EC50 in data set [1] turned out to be 1.9 µM. Besides, in data set [2], the Activity turned out to be 75%.
With `COc1ccc(CN2C(=O)C(=O)c3cc(OC(F)(F)F)ccc32)cc1`, the Activity in data set [7] and in data set [8] was 30% in each case. Moreover, the EC50 was > 30 µM in data set [5], 1.1 µM in data set [1] and > 30 µM in data set [6]. Also, the Kp in data set [3] is 0.25.
Consider `O=C1C(=O)N(Cc2ccc(C(F)(F)F)cc2)c2c(Cl)cccc21`, for which the Kp in data set [3] is 0.25. Moreover, in data set [6], the EC50 is > 10 µM.
Regarding `COc1ccc(CN2C(=O)C(=O)c3ccc(OC(F)(F)F)cc32)cc1`, in data set [1], the EC50 was found to be 5.7 µM.

Values taken from ChEMBL document CHEMBL1153220, “Chemical lead optimization of a pan G(q) mAChR M(1), M(3), M(5) positive allosteric modulator (PAM) lead. Part I: Development of the first highly selective M(5) PAM” (Bioorg Med Chem Lett, 2010).
